Assay results as given in patent publication US11608341B2, “Substituted tetrahydropyrazolo[3,4-d]pyrimidines and tetrahydropyrazolo[4,3-d]pyrimidines as C5A receptor modulators” (Idorsia Pharmaceuticals Ltd., priority 2018, dated 2023).

target: T1, C5AR1 (Homo sapiens, UniProt P21730); experiment: In vitro assay: antagonism of C5a-induced beta-arrestin recruitment (PathHunter) in CHO-K1 C5AR1 beta-arrestin cell line; assay type: cell-based; conditions: antagonistic activity, 1-10 nM C5a agonist, geometric mean where several measurements, read-out: C5aR IC50
T1 construct: host or cells: CHO-K1
T1 sequence (P21730 1-350): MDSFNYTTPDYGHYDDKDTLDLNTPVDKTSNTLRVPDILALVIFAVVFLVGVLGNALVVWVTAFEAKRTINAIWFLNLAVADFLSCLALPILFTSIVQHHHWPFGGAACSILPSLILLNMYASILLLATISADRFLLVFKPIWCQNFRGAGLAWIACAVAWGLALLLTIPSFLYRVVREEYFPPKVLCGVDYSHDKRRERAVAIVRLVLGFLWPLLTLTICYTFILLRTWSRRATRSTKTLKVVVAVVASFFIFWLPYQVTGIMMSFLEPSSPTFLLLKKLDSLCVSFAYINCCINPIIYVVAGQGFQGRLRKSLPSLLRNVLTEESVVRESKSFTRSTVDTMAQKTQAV
Procedure, shortened: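 Antagonist or DMSO added first, then C5a (1-10 nM, added at 6-fold end concentration), 1.5 h at 37 °C. PathHunter detection reagent was added for 45 min at RT before plate reading. IC50s come from antagonist serial dilutions in nmol/l and are geometric means of several measurements.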

Q: Which IC50 does the source give for Cc1cccc(C)c1N1CCC(N2Cc3cn(C)nc3N(Cc3ccccc3C(F)(F)F)C2=O)CC1 [Example 47] here?
A: 19 nM

Q: How did the IC50 turn out when COc1cccc(C)c1N1CCC(N2Cc3cn(C)nc3N(Cc3ccccc3C(F)(F)F)C2=O)CC1 [Example 48] was run?
A: 18 nM

Q: How did the IC50 turn out when Cn1cc2c(n1)N(Cc1ccccc1C(F)(F)F)C(=O)N(C1CCN(c3c(F)cccc3C#N)CC1)C2 [Example 49] was run?
A: 12 nM

Q: For Cc1cccc(F)c1N1CCC(N2Cc3cn(C)nc3N(Cc3nc(N(C)C)ccc3C(F)(F)F)C2=O)CC1 [Example 50], which IC50 is on record?
A: 85 nM

Q: CNc1ccc(C(F)(F)F)c(CN2C(=O)N(C3CCN(c4c(C)cccc4F)CC3)Cc3cn(C)nc32)n1 [Example 51] was tested. Which IC50 did it give?
A: 46 nM

Q: Which IC50 does the source give for Cc1ccnc(F)c1N1CCC(N2Cc3cn(C)nc3N(Cc3ccccc3C(F)(F)F)C2=O)CC1 [Example 52] here?
A: 72 nM

Q: Which IC50 does the source give for COC(=O)C(Cn1cc2c(n1)N(Cc1ccccc1C(F)(F)F)C(=O)N(C1CCN(c3c(C)cccc3F)CC1)C2)N(C)C (stereo not drawn) [Example 53] here?
A: 46 nM

Q: How did the IC50 turn out when COc1nccc(C)c1N1CCC(N2Cc3cn(C)nc3N(Cc3ccccc3C(F)(F)F)C2=O)CC1 [Example 54] was run?
A: 14 nM

Q: How did the IC50 turn out when Cc1cccc(F)c1N1CC[C@@H](N2Cc3cn(C)nc3N(Cc3ccccc3C(F)(F)F)C2=O)C1 [Example 55] was run?
A: 11 nM

Q: With Cc1cccc(F)c1N1CCC(N2Cc3cn(CC(CO)N(C)C)nc3N(Cc3ccccc3C(F)(F)F)C2=O)CC1 (stereo not drawn) [Example 56] as the compound, how does the IC50 read?
A: 91 nM

Q: CNCCn1cc2c(n1)N(Cc1ccccc1C(F)(F)F)C(=O)N(C1CCN(c3c(C)cccc3F)CC1)C2 [Example 59] was tested. Which IC50 did it give?
A: 196 nM

Q: How did the IC50 turn out when Cc1cccc(F)c1N1CCC(N2Cc3cn(CCN(C)C)nc3N(Cc3ccccc3C(F)(F)F)C2=O)CC1 [Example 60] was run?
A: 56 nM

Q: How did the IC50 turn out when Cc1cccc(F)c1N1CCC(N2Cc3cn(C)nc3N(Cc3c(F)cccc3C(F)(F)F)C2=O)CC1 [Example 61] was run?
A: 16 nM

Q: With Cc1cccc(F)c1N1CCC(N2Cc3cn(CCN4CCCC4)nc3N(Cc3ccccc3C(F)(F)F)C2=O)CC1 [Example 62] as the compound, how does the IC50 read?
A: 105 nM

Q: Cc1cccc(F)c1N1CCC(N2Cc3cn(CCN4CCCCC4)nc3N(Cc3ccccc3C(F)(F)F)C2=O)CC1 [Example 63] was tested. Which IC50 did it give?
A: 91 nM

Q: Cc1cccc(F)c1N1CCC(N2Cc3cn(CCN4CCOCC4)nc3N(Cc3ccccc3C(F)(F)F)C2=O)CC1 [Example 64] was tested. Which IC50 did it give?
A: 21 nM

Q: With Cc1cccc(F)c1N1CCC(N2Cc3cn(CCN4CCN(C)CC4)nc3N(Cc3ccccc3C(F)(F)F)C2=O)CC1 [Example 65] as the compound, how does the IC50 read?
A: 120 nM

Q: How did the IC50 turn out when CC(=O)NCCn1cc2c(n1)N(Cc1ccccc1C(F)(F)F)C(=O)N(C1CCN(c3c(C)cccc3F)CC1)C2 [Example 66] was run?
A: 152 nM

Q: Cc1cccc(F)c1N1CCC(N2Cc3cn(CCNC(=O)OC(C)(C)C)nc3N(Cc3ccccc3C(F)(F)F)C2=O)CC1 [Example 67] was tested. Which IC50 did it give?
A: 15 nM

Q: With Cn1cc2c(n1)N(Cc1ccccc1C(F)(F)F)C(=O)N(C1CCN(c3ncccc3F)CC1)C2 [Example 68] as the compound, how does the IC50 read?
A: 318 nM

Q: Which IC50 does the source give for Cc1cccnc1N1CCC(N2Cc3cn(C)nc3N(Cc3ccccc3C(F)(F)F)C2=O)CC1 [Example 69] here?
A: 38 nM

Q: Which IC50 does the source give for COc1cccnc1N1CCC(N2Cc3cn(C)nc3N(Cc3ccccc3C(F)(F)F)C2=O)CC1 [Example 70] here?
A: 512 nM

Q: How did the IC50 turn out when Cc1cccc(F)c1N1CCC(N2Cc3cn(CCNC4CC4)nc3N(Cc3ccccc3C(F)(F)F)C2=O)CC1 [Example 71] was run?
A: 24 nM

Q: Which IC50 does the source give for Cc1cccc(F)c1N1CCC(N2Cc3cn(CCN(C)C(C)C)nc3N(Cc3ccccc3C(F)(F)F)C2=O)CC1 [Example 72] here?
A: 43 nM

Q: How did the IC50 turn out when Cc1cccc(F)c1N1CCC(N2Cc3cn(CCN(C)C4CC4)nc3N(Cc3ccccc3C(F)(F)F)C2=O)CC1 [Example 73] was run?
A: 17 nM

Q: Which IC50 does the source give for COCCN(C)CCn1cc2c(n1)N(Cc1ccccc1C(F)(F)F)C(=O)N(C1CCN(c3c(C)cccc3F)CC1)C2 [Example 74] here?
A: 26 nM

Q: For Cc1cccc(F)c1N1CCC(N2Cc3cn(C(C)C(N)=O)nc3N(Cc3ccccc3C(F)(F)F)C2=O)CC1 (stereo not drawn) [Example 75], which IC50 is on record?
A: 171 nM

Q: How did the IC50 turn out when Cc1cccc(F)c1N1CCC(N2Cc3cn(C4COC4)nc3N(Cc3ccccc3C(F)(F)F)C2=O)CC1 [Example 77] was run?
A: 10 nM

Q: For Cc1cccc(F)c1N1CCC(N2Cc3cn(C(C)C#N)nc3N(Cc3ccccc3C(F)(F)F)C2=O)CC1 (stereo not drawn) [Example 78], which IC50 is on record?
A: 14 nM

Q: Which IC50 does the source give for Cc1cccc(F)c1N1CCC(N2Cc3cn(C(C)CN)nc3N(Cc3ccccc3C(F)(F)F)C2=O)CC1 (stereo not drawn) [Example 79] here?
A: 676 nM

Q: Cc1cccc(F)c1N1CCC(N2Cc3cn(CC(C)N)nc3N(Cc3ccccc3C(F)(F)F)C2=O)CC1 (stereo not drawn) [Example 80] was tested. Which IC50 did it give?
A: 350 nM

Q: How did the IC50 turn out when Cc1cccc(F)c1N1CCC(N2Cc3nn(C)nc3N(Cc3ccccc3C(F)(F)F)C2=O)CC1 [Example 81] was run?
A: 21 nM

Q: Which IC50 does the source give for Cc1cccc(F)c1N1CCC(N2Cc3cn(C4CCCCC4[N+](=O)[O-])nc3N(Cc3ccccc3C(F)(F)F)C2=O)CC1 (stereo not drawn) [Example 82] here?
A: 119 nM

Q: With Cc1cccc(F)c1N1CCC(N2Cc3cn(C(C)(NC(=O)OC(C)(C)C)C(F)(F)F)nc3N(Cc3ccccc3C(F)(F)F)C2=O)CC1 (stereo not drawn) [Example 83] as the compound, how does the IC50 read?
A: 75 nM

Q: Cc1cccc(F)c1N1CCC(N2Cc3cn(C(C)(C)C(N)=O)nc3N(Cc3ccccc3C(F)(F)F)C2=O)CC1 [Example 84] was tested. Which IC50 did it give?
A: 74 nM

Q: Cc1ccnc(C#N)c1N1CCC(N2Cc3cn(C)nc3N(Cc3ccccc3C(F)(F)F)C2=O)CC1 [Example 85] was tested. Which IC50 did it give?
A: 34 nM

Q: Which IC50 does the source give for Cc1nccc(F)c1N1CCC(N2Cc3cn(C)nc3N(Cc3ccccc3C(F)(F)F)C2=O)CC1 [Example 86] here?
A: 230 nM

Q: With Cc1cccc(F)c1N1CCC(N2Cc3cn(C(C)(C)C#N)nc3N(Cc3ccccc3C(F)(F)F)C2=O)CC1 [Example 87] as the compound, how does the IC50 read?
A: 12 nM

Q: Which IC50 does the source give for Cc1cccc(F)c1N1CCC(N2Cc3cn(C(C)(C)CN)nc3N(Cc3ccccc3C(F)(F)F)C2=O)CC1 [Example 88] here?
A: 156 nM

Q: With Cc1nc2c(o1)N(Cc1ccccc1C(F)(F)F)C(=O)N(C1CCN(c3c(C)cccc3F)CC1)C2 [Example 89] as the compound, how does the IC50 read?
A: 54 nM

Q: How did the IC50 turn out when Cc1nc2c(s1)N(Cc1ccccc1C(F)(F)F)C(=O)N(C1CCN(c3c(C)cccc3F)CC1)C2 [Example 90] was run?
A: 153 nM

Q: Cc1cccc(F)c1N1CCC(N2Cc3cn(C4CN(C(=O)OC(C)(C)C)C4)nc3N(Cc3ccccc3C(F)(F)F)C2=O)CC1 [Example 91] was tested. Which IC50 did it give?
A: 26 nM

Q: Which IC50 does the source give for Cc1cccc(F)c1N1CCC(N2Cc3cn(C4CNC4)nc3N(Cc3ccccc3C(F)(F)F)C2=O)CC1 [Example 92] here?
A: 428 nM

Q: Which IC50 does the source give for Cc1cccc(F)c1N1CCC(N2Cc3cn(C4CCN(C(=O)OC(C)(C)C)C4)nc3N(Cc3ccccc3C(F)(F)F)C2=O)CC1 (stereo not drawn) [Example 93] here?
A: 17 nM

Q: With Cc1cccc(F)c1N1CCC(N2Cc3cn(C4CCNC4)nc3N(Cc3ccccc3C(F)(F)F)C2=O)CC1 (stereo not drawn) [Example 94] as the compound, how does the IC50 read?
A: 727 nM

Q: COc1ccnc(OC)c1N1CCC(N2Cc3cn(C)nc3N(Cc3ccccc3C(F)(F)F)C2=O)CC1 [Example 95] was tested. Which IC50 did it give?
A: 125 nM

Q: For COc1ncnc(C)c1N1CCC(N2Cc3cn(C)nc3N(Cc3ccccc3C(F)(F)F)C2=O)CC1 [Example 96], which IC50 is on record?
A: 492 nM

Q: For Cc1cccc(F)c1N1CCC(N2Cc3cn(CC4CCCN4C(=O)OC(C)(C)C)nc3N(Cc3ccccc3C(F)(F)F)C2=O)CC1 (stereo not drawn) [Example 97], which IC50 is on record?
A: 30 nM

Q: For COc1ncnc(OC)c1N1CCC(N2Cc3cn(C)nc3N(Cc3ccccc3C(F)(F)F)C2=O)CC1 [Example 100], which IC50 is on record?
A: 339 nM

Q: With Cc1cccc(F)c1N1CCC(N2Cc3cn(CC(C)(C)NS(=O)(=O)c4ccc(Cl)cc4)nc3N(Cc3ccccc3C(F)(F)F)C2=O)CC1 [Example 101] as the compound, how does the IC50 read?
A: 22 nM

Q: CCN1CC(n2cc3c(n2)N(Cc2ccccc2C(F)(F)F)C(=O)N(C2CCN(c4c(C)cccc4F)CC2)C3)C1 [Example 103] was tested. Which IC50 did it give?
A: 351 nM

Q: Which IC50 does the source give for Cc1cccc(F)c1N1CCC(N2Cc3cn(C4CN(CC(C)C)C4)nc3N(Cc3ccccc3C(F)(F)F)C2=O)CC1 [Example 104] here?
A: 146 nM

Q: Which IC50 does the source give for Cc1cccc(F)c1N1CCC(N2Cc3cn(C4CN(CC(F)F)C4)nc3N(Cc3ccccc3C(F)(F)F)C2=O)CC1 [Example 106] here?
A: 24 nM

Q: With Cc1cccc(F)c1N1CCC(N2Cc3cn(C4CN(CCF)C4)nc3N(Cc3ccccc3C(F)(F)F)C2=O)CC1 [Example 107] as the compound, how does the IC50 read?
A: 52 nM

Q: With Cc1cccc(F)c1N1CCC(N2Cc3cn(C[C@H]4CC(F)(F)CN4C(=O)OC(C)(C)C)nc3N(Cc3ccccc3C(F)(F)F)C2=O)CC1 [Example 108] as the compound, how does the IC50 read?
A: 21 nM

Q: For Cc1cccc(F)c1N1CCC(N2Cc3cn(C[C@@H]4CC(F)(F)CN4C(=O)OC(C)(C)C)nc3N(Cc3ccccc3C(F)(F)F)C2=O)CC1 [Example 109], which IC50 is on record?
A: 27 nM

Q: Cc1cccc(F)c1N1CCC(N2Cc3cn(CC(C)(C)NS(=O)(=O)c4ccccc4[N+](=O)[O-])nc3N(Cc3ccccc3C(F)(F)F)C2=O)CC1 [Example 110] was tested. Which IC50 did it give?
A: 28 nM

Q: For Cc1cccc(F)c1N1CCC(N2Cc3cn(C[C@H]4CC(F)(F)CN4)nc3N(Cc3ccccc3C(F)(F)F)C2=O)CC1 [Example 111], which IC50 is on record?
A: 29 nM

Q: With Cc1cccc(F)c1N1CCC(N2Cc3cn(C[C@@H]4CC(F)(F)CN4)nc3N(Cc3ccccc3C(F)(F)F)C2=O)CC1 [Example 112] as the compound, how does the IC50 read?
A: 18 nM

Q: CC(=O)N1CCC(n2cc3c(n2)N(Cc2ccccc2C(F)(F)F)C(=O)N(C2CCN(c4c(C)cccc4F)CC2)C3)C1 (stereo not drawn) [Example 113] was tested. Which IC50 did it give?
A: 110 nM

Q: For CC(=O)N1CCC1Cn1cc2c(n1)N(Cc1ccccc1C(F)(F)F)C(=O)N(C1CCN(c3c(C)cccc3F)CC1)C2 (stereo not drawn) [Example 114], which IC50 is on record?
A: 107 nM

Q: Which IC50 does the source give for CC(=O)N1CCCC1Cn1cc2c(n1)N(Cc1ccccc1C(F)(F)F)C(=O)N(C1CCN(c3c(C)cccc3F)CC1)C2 (stereo not drawn) [Example 115] here?
A: 137 nM

Q: CC(=O)N1CC(n2cc3c(n2)N(Cc2ccccc2C(F)(F)F)C(=O)N(C2CCN(c4c(C)cccc4F)CC2)C3)C1 [Example 116] was tested. Which IC50 did it give?
A: 844 nM
